From patent publication US20230203043A1, “NOVEL IMIDAZOPYRAZINE DERIVATIVES” (Hoffmann-La Roche Inc., priority 2020, published 2023) come the findings set out here.

Counter-ions that a name gives are not always drawn. Like-named read-outs stand apart in the source and are kept apart here.

One may read the IC90 as the point of the concentration-response curve where the effect stands at 90%.

The assay relates to Acinetobacter baumannii ATCC17961. As to the kind of experiment: Antimicrobial susceptibility testing: 90% growth inhibitory concentration (IC90) determination in Iso-Sensitest broth, OD600 growth. Type of assay: cell-based. Summed up: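 Growth inhibition is calculated during the logarithmic phase from OD600 readings taken every 20 minutes across 16 h at 35±2° C. Bacteria at ~5×10^(5) CFU/ml face twofold dilution series (e.g. 50 to 0.097 μM final).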

Setting [1] is: Acinetobacter baumannii, ATCC17961, 16 h, read-out: A. baumannii ATCC 17961 IC90 (uM), strain ATCC 17961, OD600 growth over 16 h.
Setting [2] is: Acinetobacter baumannii, ATCC17961, 16 h, strain ATCC 17961, OD600 growth over 16 h, read-out: A. baumannii ATCC 17961 IC90.

Turning to `N[C@H]1CC[C@H](NC(=O)N2CCN(C(=O)c3ccc(Nc4nccn5c(-c6c[nH]nc6C(F)(F)F)cnc45)cc3Cl)CC2)C1` [Example 292, N-[(1S,3S)-3-aminocyclopentyl]-4-[2-chloro-4-[[3-[3-(trifluoromethyl)-1H-pyrazol-4-yl]imidazo[1,2-a]pyrazin-8-yl]amino]benzoyl] piperazine-1-carboxamide formate], the concentration for an effect of 90% (IC90) (strain ATCC 17961, OD600 growth over 16 h, read-out: A. baumannii ATCC 17961 IC90) stood at 0.354 µM.

With `CCc1cc(Nc2nccn3c(-c4cn(CC(F)(F)F)nc4C(F)(F)F)cnc23)ccc1C(=O)NCCOCCN` [Example 276, N-[2-(2-aminoethoxy)ethyl]-2-ethyl-4-[[3-[1-(2,2,2-trifluoroethyl)-3-(trifluoromethyl)pyrazol-4-yl]imidazo[1,2-a]pyrazin-8-yl]amino]benzamide formate], the IC90 under setting [1] was 0.178 µM.

Turning to `Cc1cc(Nc2nccn3c(-c4cn(CC#N)nc4C(F)(F)F)cnc23)ccc1C(=O)NCC(=O)NC1CC(N)C1` (centres unmarked) [Example 749, N-[2-[(3-aminocyclobutyl)amino]-2-oxo-ethyl]-4-[[3-[1-(cyanomethyl)-3-(trifluoromethyl)pyrazol-4-yl]imidazo[1,2-a]pyrazin-8-yl]amino]-2-methyl-benzamide formate], under setting [1], the IC90 was determined as 0.619 µM.

For `CCc1cc(Nc2nccn3c(-c4cn(CC#N)nc4C(F)(F)F)cnc23)ccc1C(=O)N[C@H](C)CNC(=O)[C@@H]1C[C@@H](O)CN1` [Example 712, (2S,4R)-N-((R)-2-(4-((3-(1-(cyanomethyl)-3-(trifluoromethyl)-1H-pyrazol-4-yl)imidazo[1,2-a]pyrazin-8-yl)amino)-2-ethylbenzamido)propyl)-4-hydroxypyrrolidine-2-carboxamide], the 90% effect concentration (IC90) under setting [2] turned out to be 0.41 µM.

With `NC1CC(C(=O)N2CCN(C(=O)c3ccc(Nc4nccn5c(-c6c[nH]nc6C(F)(F)F)cnc45)cc3Cl)CC2)C1` (centres unmarked) [Example 330, [4-(3-aminocyclobutanecarbonyl)piperazin-1-yl]-[2-chloro-4-[[3-[3-(trifluoromethyl)-1H-pyrazol-4-yl]imidazo[1,2-a]pyrazin-8-yl]amino]phenyl]methanone formate], for the setting “read-out: A. baumannii ATCC 17961 IC90, strain ATCC 17961, OD600 growth over 16 h, formate”, the IC90 was determined as 0.275 µM.

Consider `N#CCn1cc(-c2cnc3c(Nc4ccc(C(=O)N5CCN(C(=O)[C@H]6CC[C@@H](N)C6)CC5)c(Cl)c4)nccn23)c(C(F)(F)F)n1` [Example 192, 2-[4-[8-[4-[4-[(1S,3R)-3-aminocyclopentanecarbonyl]piperazine-1-carbonyl]-3-chloroanilino]imidazo[1,2-a]pyrazin-3-yl]-3-(trifluoromethyl)pyrazol-1-yl]acetonitrile formate], for which, under setting [1], the IC90 was 0.208 µM.

As to `O=C(NCC(=O)N1CCNCC1)c1ccc(Nc2nccn3c(-c4c[nH]nc4C(F)(F)F)cnc23)cc1Cl` [Example 162, 2-chloro-N-(2-oxo-2-piperazin-1-ylethyl)-4-[[3-[3-(trifluoromethyl)-1H-pyrazol-4-yl]imidazo[1,2-a]pyrazin-8-yl]amino]benzamide], under setting [2], the 90% effect concentration (IC90) stood at 1.22 µM.

For the molecule `O=C(CNC(=O)c1ccc(Nc2nccn3c(-c4c[nH]nc4C(F)(F)F)cnc23)cc1Cl)N[C@H]1CCNC1` [Example 125, 2-chloro-N-[2-oxo-2-[[(3S)-pyrrolidin-3-yl]amino]ethyl]-4-[[3-[3-(trifluoromethyl)-1H-pyrazol-4-yl]imidazo[1,2-a]pyrazin-8-yl]amino]benzamide], the IC90 under setting [2] worked out at 2.23 µM.

Take `C#CCn1cc(-c2cnc3c(Nc4ccc(C(=O)N5CCN(C(=O)C6CCNCC6)CC5)c(CC)c4)nccn23)c(C(F)F)n1` [Example 730, (4-(4-((3-(3-(difluoromethyl)-1-(prop-2-yn-1-yl)-1H-pyrazol-4-yl)imidazo[1,2-a]pyrazin-8-yl)amino)-2-ethylbenzoyl)piperazin-1-yl)(piperidin-4-yl) methanone]: the IC90 under setting [2] turned out to be 0.475 µM.

With `C#CC(C)n1cc(-c2cnc3c(Nc4ccc(C(=O)N5CCN(C(=O)C(C)N)CC5)c(CC)c4)nccn23)c(C(F)F)n1` (stereo in doubt) [Example 784, (2R)-2-amino-1-(4-(4-((3-(1-(but-3-yn-2-yl)-3-(difluoromethyl)-1H-pyrazol-4-yl)imidazo [1,2-a]pyrazin-8-yl)amino)-2-ethylbenzoyl)piperazin-1-yl)propan-1-one (mixture of epimers)], the 90% effect concentration (IC90) under setting [2] was 1.24 µM.

On to `CCc1cc(Nc2nccn3c(-c4cn(CC(F)F)nc4C(F)(F)F)cnc23)ccc1C(=O)NCC(=O)N1CCNC(C)C1` (centres unmarked) [Example 545, 4-[[3-[1-(2,2-difluoroethyl)-3-(trifluoromethyl)pyrazol-4-yl]imidazo[1,2-a]pyrazin-8-yl]amino]-2-ethyl-N-[2-(3-methylpiperazin-1-yl)-2-oxo-ethyl]benzamide formate], for which, under setting [1], the IC90 worked out at 0.306 µM.

`Cc1cc(Nc2nccn3c(-c4c[nH]nc4C(F)(F)F)cnc23)ccc1C(=O)N1CCN(C(=O)C2(O)CCCNC2)CC1` (centres unmarked) [Example 436, [4-(3-hydroxypiperidine-3-carbonyl)piperazin-1-yl]-[2-methyl-4-[[3-[3-(trifluoromethyl)-1H-pyrazol-4-yl]imidazo[1,2-a]pyrazin-8-yl]amino]phenyl]methanone hydrochloride]: the concentration for an effect of 90% (IC90) under setting [2] came to 0.536 µM.

Turning to `CCc1cc(Nc2nccn3c(-c4cn(CC(F)F)nc4C(F)(F)F)cnc23)ccc1C(=O)NCC(=O)N1CC[C@H](N)C1` [Example 711, N-[2-[(3S)-3-aminopyrrolidin-1-yl]-2-oxo-ethyl]-4-[[3-[1-(2,2-difluoroethyl)-3-(trifluoromethyl)pyrazol-4-yl]imidazo[1,2-a]pyrazin-8-yl]amino]-2-ethyl-benzamide], under setting [2], the IC90 is 0.409 µM.

For `O=C(c1ccc(Nc2nccn3c(-c4cn(CC(F)F)nc4C(F)(F)F)cnc23)cc1Cl)N1CC2(C1)CN(C(=O)[C@@H]1CCCN1)C2` [Example 635, (S)-(2-chloro-4-((3-(1-(2,2-difluoroethyl)-3-(trifluoromethyl)-1H-pyrazol-4-yl)imidazo[1,2-a]pyrazin-8-yl)amino)phenyl)(6-prolyl-2,6-diazaspiro [3.3]heptan-2-yl)methanone], the concentration for an effect of 90% (IC90) under setting [2] stood at 0.22 µM.

For the molecule `CCc1cc(Nc2nccn3c(-c4cn(CC(F)F)nc4C#N)cnc23)ccc1C(=O)NCCOCCN` [Example 832, N-(2-(2-aminoethoxy)ethyl)-4-((3-(3-cyano-1-(2,2-difluoroethyl)-1H-pyrazol-4-yl)imidazo[1,2-α]pyrazin-8-yl)amino)-2-ethylbenzamide], the 90% effect concentration (IC90) under setting [2] is 0.48 µM.

Regarding `N#CCn1cc(-c2cnc3c(Nc4ccc(C(=O)N5CCN(C(=O)[C@@H]6CC[C@@H](N)C6)CC5)c(Cl)c4)nccn23)c(C(F)(F)F)n1` [Example 573, 2-(4-(8-((4-(4-((1R,3R)-3-aminocyclopentane-1-carbonyl)piperazine-1-carbonyl)-3-chlorophenyl)amino)imidazo[1,2-a]pyrazin-3-yl)-3-(trifluoromethyl)-1H-pyrazol-1-yl)acetonitrile formate], the 90% effect concentration (IC90) under setting [1] turned out to be 0.169 µM.

For the molecule `Cc1cc(Nc2nccn3c(-c4cn(CC#N)nc4C(F)(F)F)cnc23)ccc1C(=O)N1CCN(C(=O)[C@@H]2CCNC[C@H]2O)CC1` [Example 380, formic acid; 2-[4-[8-[4-[4-[(3S,4R)-3-hydroxypiperidine-4-carbonyl]piperazine-1-carbonyl]-3-methylanilino]imidazo[1,2-a]pyrazin-3-yl]-3-(trifluoromethyl)pyrazol-1-yl]acetonitrile], the IC90 under setting [1] worked out at 0.623 µM.
